Publication PMC8413904 (Pharmacology Research & Perspectives, 2021)

Tests used:
[1] = system: cultured rat brain cerebellar neurons; assay: Na^+ assay (CoroNa green‐AM); assay type: cell-based
Experimental: (§1) All animal experimental procedures and housing have been approved by the Institutional Animal Care and Use Committee (IACUC) protocol #18‐015 of Virginia Tech. Embryonic day 18 (E18) rat brain tissue samples were obtained from adult pregnant SD rats. Rat brain primary cortical, striatal, and cerebellar neurons were cultured on poly‐d‐lysine coated 96‐well plates for 14 days in vitro (DIV14) before using for the experiments. Primary rat neuron culture was performed as previously published.[44] Briefly, each well of a 96 well plate was loaded with 50 000 cells and grown in 200 µl neurobasal media supplemented with B27, glutamax, penicillin, streptomycin. One hundred microliters of media was replaced with fresh media once in 4 days. Eight to thirteen fetus were obtained from each pregnant rat. Brain tissue from these fetus were pooled to obtain the neurons. Cortical, striatal, and cerebellar neuron assays were carried out at different time points.
(§2) For Na^+ assay, DIV14 neurons were washed with HBSS and treated with freshly prepared CoroNa green‐AM dye (ThermoFisher, cat # C36676) and incubated for 45 min in 37°C. Plates were washed twice with HBSS before adding drug solutions dissolved in HBSS, and read at 492/516 nm (ex/em) using a plate reader. RFU values of background control and treatments were plotted to identify the effect of CNS4 on NMDA‐induced Na^+ flux in the neurons.

[2] = system: cultured rat brain striatal neurons; assay: Na^+ assay (CoroNa green‐AM); assay type: cell-based; details: 0.3 µM NMDA plus 100 µM CNS4; highest level
Experimental: as §1, §2

[3] = target: GluN1/2A/2B triheteromeric (1/2AB) receptors (Rattus norvegicus, UniProt P35439+Q00959+Q01097); assay: TEVC electrophysiology dose–response in xenopus oocytes; details: 100 µM CNS4, −60 mV, average ± SEM
Description: NMDAR constructs: cDNA encoding the NMDAR1a subunit (GluN1a) was obtained from Dr. Nakanishi. cDNA encoding the GluN2B (pci_sepGluN2B) was developed initially in the Malinow lab[36] and purchased from Addgene (cat# 23998). cDNA encoding the GluN2C and GluN2D were purchased from GenScript. Mutated GluN1, 2A and 2B cDNA constructs capable of assembling as GluN1/2A/2B triheteromeric (1/2AB) receptors[37] were obtained from Dr. Paoletti (Laboratoire de Neurobiologie, CNRS). […] Plasmids were linearized with NotI (GluN1a) or Avrll (GluN2B), or BstB1 (GluN2C and GluN2D) and transcribed in vitro with T7 (GluN1a, GluN1/2A, GluN2B, GluN2C, & GluN2D) RNA polymerase using the mMessage mMachine transcription kits (Invitrogen by Thermo Fisher Scientific).
Stage IV frog oocytes were obtained from Xenopus‐I. NMDAR subunit cRNAs were suspended in nuclease‐free sterile water. GluN1A, GluN2B, GluN2C, GluN2D, and GluN1/2A/2B cRNAs were mixed in a ratio of 1:1–3. 50 nl of the final cRNA mixture was microinjected (40–70 ng total) into the oocyte cytoplasm. Oocytes were incubated in ND‐96 solution at 18^◦C prior to electrophysiological recordings (1–3 days).
Electrophysiological responses were measured using a standard two‐microelectrode voltage‐clamp workstation [Warner Instruments (Hamden, Connecticut) model OC‐725C] designed to provide a fast clamp of large cells. The recording buffer contained 116 mM NaCl, 2 mM KCl, 0.3 mM BaCl2, and 5 mM HEPES, pH 7.4. Response magnitude was determined in xenopus oocytes expressing different NMDAR subunits (GluN1/2A, 1/2B, 1/2C, 1/2D, and 1/2A/2B) by the steady plateau response elicited by bath application of different agonist concentrations. […] Response amplitudes for functional NMDARs were generally between 0.1 and 2 μA. […] Dose–response relationships were fit to an appropriate curve‐fitting equation using GraphPad Prism‐7. Nonlinear regression was used to calculate EC50 and/or percentage maximal response. […] Statistical significance was determined at the overall alpha level .05, using appropriate statistical methods as described in each figure captions.

[4] = target: GluN1/2C (UniProt P35439+Q14957); assay: Current–voltage (I–V) relationship, TEVC in xenopus oocytes
Experimental: (§3) GluN1A, GluN2B, GluN2C, GluN2D, and GluN1/2A/2B cRNAs were mixed in a ratio of 1:1–3. 50 nl of the final cRNA mixture was microinjected (40–70 ng total) into the oocyte cytoplasm. Oocytes were incubated in ND‐96 solution at 18^◦C prior to electrophysiological recordings (1–3 days).
(§4) After obtaining a steady‐state response to different agonist applications, agonist plus 100 μM CNS4 or agonist plus 40 μM MgCl2 plus 100 μM CNS4 was applied. […] Data points were aligned by least‐square fit by third‐order polynomial equation (Y = B0 + B1*X +B2*X ^2 + B3*X ^3), except for GluN1/2B that needed a fourth‐order polynomial equation.

[5] = target: T1, GluN1/2B (Rattus norvegicus, UniProt P35439+Q00960); assay: TEVC electrophysiology dose–response in xenopus oocytes; assay type: cell-based; set-up: SEP (super-ecliptic pHluorin); host or cells: Xenopus oocytes (cRNA injection); details: 100 µM CNS4; 0.3 µM glutamate + 100 µM glycine; −60 mV; average ± SEM
Description: NMDAR constructs: cDNA encoding the NMDAR1a subunit (GluN1a) was obtained from Dr. Nakanishi. cDNA encoding the GluN2B (pci_sepGluN2B) was developed initially in the Malinow lab[36] and purchased from Addgene (cat# 23998). cDNA encoding the GluN2C and GluN2D were purchased from GenScript. Mutated GluN1, 2A and 2B cDNA constructs capable of assembling as GluN1/2A/2B triheteromeric (1/2AB) receptors[37] were obtained from Dr. Paoletti (Laboratoire de Neurobiologie, CNRS). […] Plasmids were linearized with NotI (GluN1a) or Avrll (GluN2B), or BstB1 (GluN2C and GluN2D) and transcribed in vitro with T7 (GluN1a, GluN1/2A, GluN2B, GluN2C, & GluN2D) RNA polymerase using the mMessage mMachine transcription kits (Invitrogen by Thermo Fisher Scientific). […]
Electrophysiological responses were measured using a standard two‐microelectrode voltage‐clamp workstation [Warner Instruments (Hamden, Connecticut) model OC‐725C] designed to provide a fast clamp of large cells. […] Response magnitude was determined in xenopus oocytes expressing different NMDAR subunits (GluN1/2A, 1/2B, 1/2C, 1/2D, and 1/2A/2B) by the steady plateau response elicited by bath application of different agonist concentrations. […] Statistical significance was determined at the overall alpha level .05, using appropriate statistical methods as described in each figure captions.

[6] = target: GluN1/2A (UniProt P35439+Q12879); assay: Current–voltage (I–V) relationship, TEVC in xenopus oocytes
Experimental: as §3, §4

[7] = target: T1, GluN1/2B; assay: as above
Experimental: as §3, §4

[8] = 100 µM CNS4, 100 µM glutamate + 100 µM glycine, −90 to +30 mv

T1 sequence (Q00960 27-1482, other chains not shown): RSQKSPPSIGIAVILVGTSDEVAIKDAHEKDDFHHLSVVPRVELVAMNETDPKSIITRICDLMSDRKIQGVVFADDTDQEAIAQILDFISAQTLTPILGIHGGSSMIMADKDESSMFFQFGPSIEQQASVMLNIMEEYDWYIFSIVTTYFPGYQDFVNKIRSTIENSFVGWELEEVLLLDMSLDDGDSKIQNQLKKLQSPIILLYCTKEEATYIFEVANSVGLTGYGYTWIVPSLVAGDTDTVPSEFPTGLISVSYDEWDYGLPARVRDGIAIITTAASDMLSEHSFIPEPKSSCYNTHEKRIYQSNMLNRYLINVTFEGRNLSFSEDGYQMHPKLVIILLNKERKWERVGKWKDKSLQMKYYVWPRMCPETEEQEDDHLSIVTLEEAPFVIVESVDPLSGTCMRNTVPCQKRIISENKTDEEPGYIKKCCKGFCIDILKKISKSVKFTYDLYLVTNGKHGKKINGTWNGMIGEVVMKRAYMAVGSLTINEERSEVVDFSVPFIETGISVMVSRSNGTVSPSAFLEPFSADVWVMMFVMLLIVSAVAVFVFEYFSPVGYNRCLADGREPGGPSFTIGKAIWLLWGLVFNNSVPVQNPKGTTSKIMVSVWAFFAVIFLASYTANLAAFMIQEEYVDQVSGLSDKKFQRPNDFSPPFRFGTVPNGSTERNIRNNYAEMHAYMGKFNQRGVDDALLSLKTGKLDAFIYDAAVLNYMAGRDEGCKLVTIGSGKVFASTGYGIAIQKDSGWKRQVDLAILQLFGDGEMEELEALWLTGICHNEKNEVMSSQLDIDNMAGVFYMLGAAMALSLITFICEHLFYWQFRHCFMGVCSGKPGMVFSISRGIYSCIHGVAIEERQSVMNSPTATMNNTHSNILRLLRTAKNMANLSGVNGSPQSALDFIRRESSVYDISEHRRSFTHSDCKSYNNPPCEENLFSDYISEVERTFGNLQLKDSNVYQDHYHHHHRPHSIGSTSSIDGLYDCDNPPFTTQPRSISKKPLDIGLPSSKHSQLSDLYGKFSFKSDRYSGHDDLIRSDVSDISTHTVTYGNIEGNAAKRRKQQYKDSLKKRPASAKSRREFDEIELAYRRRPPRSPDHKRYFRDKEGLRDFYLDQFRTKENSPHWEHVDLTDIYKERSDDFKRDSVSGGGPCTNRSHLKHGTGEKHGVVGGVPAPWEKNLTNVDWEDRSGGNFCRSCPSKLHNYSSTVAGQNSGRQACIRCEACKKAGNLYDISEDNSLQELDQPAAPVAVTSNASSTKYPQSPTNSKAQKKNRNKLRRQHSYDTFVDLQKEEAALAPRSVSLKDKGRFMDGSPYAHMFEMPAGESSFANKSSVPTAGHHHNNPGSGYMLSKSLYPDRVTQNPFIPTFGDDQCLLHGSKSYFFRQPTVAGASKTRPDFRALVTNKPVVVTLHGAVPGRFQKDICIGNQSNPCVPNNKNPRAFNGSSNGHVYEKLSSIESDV
Chain of GluN1/2A/2B triheteromeric (1/2AB) receptors (Q01097 27-1482, other chains not shown): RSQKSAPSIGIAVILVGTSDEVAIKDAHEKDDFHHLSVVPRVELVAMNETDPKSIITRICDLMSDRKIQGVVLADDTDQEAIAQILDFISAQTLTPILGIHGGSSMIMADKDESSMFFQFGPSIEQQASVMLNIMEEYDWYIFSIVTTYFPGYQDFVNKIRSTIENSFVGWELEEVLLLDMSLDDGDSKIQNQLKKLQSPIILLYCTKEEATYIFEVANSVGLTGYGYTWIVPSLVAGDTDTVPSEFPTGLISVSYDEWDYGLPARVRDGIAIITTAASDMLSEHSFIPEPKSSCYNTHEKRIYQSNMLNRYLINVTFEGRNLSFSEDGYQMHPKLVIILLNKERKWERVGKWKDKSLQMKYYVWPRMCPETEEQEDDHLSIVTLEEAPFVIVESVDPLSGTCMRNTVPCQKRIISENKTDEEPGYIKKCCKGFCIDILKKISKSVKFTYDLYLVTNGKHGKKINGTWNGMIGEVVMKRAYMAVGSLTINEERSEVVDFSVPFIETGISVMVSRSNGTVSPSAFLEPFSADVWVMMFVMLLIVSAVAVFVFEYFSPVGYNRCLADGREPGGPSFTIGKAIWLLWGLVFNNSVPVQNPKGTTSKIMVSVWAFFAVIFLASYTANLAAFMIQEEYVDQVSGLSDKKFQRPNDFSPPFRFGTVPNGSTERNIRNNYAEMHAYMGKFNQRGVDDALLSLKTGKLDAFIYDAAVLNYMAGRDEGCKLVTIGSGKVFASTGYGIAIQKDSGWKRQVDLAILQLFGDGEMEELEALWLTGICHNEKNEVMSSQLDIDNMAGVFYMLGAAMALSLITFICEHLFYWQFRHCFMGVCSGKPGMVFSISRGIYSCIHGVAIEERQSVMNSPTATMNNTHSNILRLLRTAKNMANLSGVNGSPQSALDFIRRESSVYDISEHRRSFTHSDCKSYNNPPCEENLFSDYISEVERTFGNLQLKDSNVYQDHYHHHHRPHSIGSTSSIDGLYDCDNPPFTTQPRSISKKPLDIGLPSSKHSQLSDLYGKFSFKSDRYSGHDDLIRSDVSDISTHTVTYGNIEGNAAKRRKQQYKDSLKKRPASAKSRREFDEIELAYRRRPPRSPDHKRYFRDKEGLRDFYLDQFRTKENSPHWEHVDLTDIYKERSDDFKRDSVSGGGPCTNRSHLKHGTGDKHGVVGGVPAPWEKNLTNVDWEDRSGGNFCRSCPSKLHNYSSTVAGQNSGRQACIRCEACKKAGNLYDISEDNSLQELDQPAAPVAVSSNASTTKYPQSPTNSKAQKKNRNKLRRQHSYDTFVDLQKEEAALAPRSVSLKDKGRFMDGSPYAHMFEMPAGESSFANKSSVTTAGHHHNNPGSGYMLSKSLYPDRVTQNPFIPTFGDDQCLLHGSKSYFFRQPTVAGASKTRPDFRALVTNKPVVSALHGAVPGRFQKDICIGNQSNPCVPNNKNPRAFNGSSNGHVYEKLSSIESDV
Chain of GluN1/2A/2B triheteromeric (1/2AB) receptors (Q00959 23-1464, other chains not shown): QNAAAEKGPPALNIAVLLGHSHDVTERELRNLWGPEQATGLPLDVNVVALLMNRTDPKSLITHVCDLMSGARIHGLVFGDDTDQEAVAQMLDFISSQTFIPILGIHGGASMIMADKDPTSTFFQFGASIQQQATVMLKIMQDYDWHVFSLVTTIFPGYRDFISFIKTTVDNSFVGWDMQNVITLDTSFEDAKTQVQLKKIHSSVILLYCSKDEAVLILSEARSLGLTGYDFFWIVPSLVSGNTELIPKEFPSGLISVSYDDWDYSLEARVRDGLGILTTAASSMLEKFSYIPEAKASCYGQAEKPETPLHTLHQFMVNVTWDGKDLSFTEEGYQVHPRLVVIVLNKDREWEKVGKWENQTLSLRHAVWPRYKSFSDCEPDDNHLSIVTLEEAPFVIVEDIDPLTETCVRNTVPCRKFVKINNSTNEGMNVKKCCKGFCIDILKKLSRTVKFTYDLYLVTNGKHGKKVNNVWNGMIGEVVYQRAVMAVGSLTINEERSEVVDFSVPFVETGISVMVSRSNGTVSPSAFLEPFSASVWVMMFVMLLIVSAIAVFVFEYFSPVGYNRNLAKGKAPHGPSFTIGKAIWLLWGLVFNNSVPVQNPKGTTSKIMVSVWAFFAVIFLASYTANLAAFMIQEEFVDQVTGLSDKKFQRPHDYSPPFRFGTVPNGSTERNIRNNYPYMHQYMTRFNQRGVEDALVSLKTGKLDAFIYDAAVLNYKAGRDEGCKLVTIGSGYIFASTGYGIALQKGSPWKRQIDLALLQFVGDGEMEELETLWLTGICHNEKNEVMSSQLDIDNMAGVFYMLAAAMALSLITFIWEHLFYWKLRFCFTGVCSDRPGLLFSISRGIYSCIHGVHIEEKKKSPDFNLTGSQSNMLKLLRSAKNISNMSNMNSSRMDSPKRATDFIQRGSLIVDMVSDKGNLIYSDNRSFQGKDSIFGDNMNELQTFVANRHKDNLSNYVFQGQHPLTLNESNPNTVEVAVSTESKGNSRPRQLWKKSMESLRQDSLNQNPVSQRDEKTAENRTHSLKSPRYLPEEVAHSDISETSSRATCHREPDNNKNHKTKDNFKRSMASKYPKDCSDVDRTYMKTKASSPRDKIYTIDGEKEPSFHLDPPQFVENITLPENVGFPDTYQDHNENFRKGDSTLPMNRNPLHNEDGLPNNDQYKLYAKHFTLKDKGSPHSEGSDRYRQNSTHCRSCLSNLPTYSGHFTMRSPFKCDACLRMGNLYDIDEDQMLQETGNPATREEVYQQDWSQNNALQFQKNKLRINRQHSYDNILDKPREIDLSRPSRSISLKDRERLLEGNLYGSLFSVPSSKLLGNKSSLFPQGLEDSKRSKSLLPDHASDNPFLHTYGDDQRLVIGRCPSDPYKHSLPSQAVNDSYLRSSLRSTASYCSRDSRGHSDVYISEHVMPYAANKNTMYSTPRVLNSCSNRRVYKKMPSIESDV

## O=C(NC(=S)N1CCCCC1c1cccnc1)c1ccc(F)cc1 (stereo not drawn) [CNS4, 4‐fluoro‐N‐(2‐(pyridin‐3‐yl)piperidine‐1‐carbonothioyl)benzamide]
[1]; 0.3 µM NMDA plus 100 µM CNS4, highest level
  Na^+ signal: 420668 rfu
[1]; 100 µM CNS4 alone, Figure 7C
  Na^+ signal: significantly increased
[2]
  Na^+ signal: 426039 rfu
[3]; 0.3 µM glutamate + 100 µM glycine
  current response, agonist alone induced maximum current normalized to 100%: 264.37% ± 16.9%
[3]; 100 µM glutamate + 100 µM glycine
  current response, agonist alone induced maximum current normalized to 100%: 122.65% ± 1.9%
[3]; 300 µM glutamate + 100 µM glycine
  current response, agonist alone induced maximum current normalized to 100%: 144.47% ± 11.8%
[4]; 0.3 µM glutamate + 100 µM glycine + CNS4, absence of Mg2+, without CNS4 -86.44± 0.74, p<0.0001, n=7
  inward current reversal potential: -75.15±1.33 mv
[4]; 0.3 µM glutamate + 100 µM glycine + CNS4, presence of Mg2+, without CNS4 -88.59± 0.30, p<0.001, n=7
  inward current reversal potential: -79.25±1.87 mv
[4]; [8]
  voltage dependence of effect on current amplitude: no voltage dependence effect
[4]; agonist (100 µM glutamate + 100 µM glycine) + 40 µM MgCl2 + 100 µM CNS4, without CNS4 −81.75 ± 1.37, p < .01
  reversal potential: −75.53 ± 0.59 mv
[4]; agonist (100 µM glutamate + 100 µM glycine) + 100 µM CNS4, absence of Mg^2+, agonist alone −69.55 ± 1.51, p < .01
  reversal potential: −63.64 ± 0.80 mv
[5]
  current response, agonist alone induced maximum current normalized to 100%: 193.22% ± 21.2%
[6]; [8]
  voltage dependence of effect on current amplitude: no voltage dependence effect
[6]; agonist (100 µM glutamate + 100 µM glycine) + 40 µM MgCl2 + 100 µM CNS4, without CNS4 −20.06 ± 2.6, p > .05
  reversal potential: −17.57 ± 2.0 mv
[6]; agonist (100 µM glutamate + 100 µM glycine) + 100 µM CNS4, absence of Mg^2+, agonist alone −17.42 ± 2.2, p > .05
  reversal potential: −17.54 ± 1.8 mv
[7]; [8]
  voltage dependence of effect on current amplitude: no voltage dependence effect
[7]; agonist (100 µM glutamate + 100 µM glycine) + 40 µM MgCl2 + 100 µM CNS4, without CNS4 −11.66 ± 1.25, p > .05
  reversal potential: −6.9 ± 0.74 mv
[7]; agonist (100 µM glutamate + 100 µM glycine) + 100 µM CNS4, absence of Mg^2+, agonist alone −11.66 ± 1.55, p > .05
  reversal potential: −10.89 ± 1.9 mv
